Assays:
Assay type in all cases: in vivo
[1] = tested on: goosegrass (Eleusine indica); assay: Test C pre-/postemergence: goosegrass
Outline: (§1)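 Visual injury scored 0–100 (100 = complete control) against untreated controls after 13–15 greenhouse days. Surfactant-containing solvent formulations applied either to soil after sowing (loam/sand) or over 1- to 4-leaf plants, 2–18 cm tall.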

[2] = tested on: windgrass (Apera spica-venti); assay: Test C postemergence: windgrass
Outline: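 Response values are visual ratings, 0 (no effect) to 100 (complete control), made by comparison with untreated controls 13 to 15 days after postemergence treatment of greenhouse-grown potted plants that were 2 to 18 cm high at spraying.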

[3] = tested on: Russian thistle (Salsola kali); assay: Test C pre-/postemergence: Russian thistle; details: Preemergence
Description: Seeds of plant species selected from blackgrass (Alopecurus myosuroides), bromegrass, downy (downy bromegrass, Bromus tectorum), foxtail, green (green foxtail, Setaria viridis), ryegrass, Italian (Italian ryegrass, Lolium multiflorum), winter wheat (Triticum aestivum), wild oat (Avena fatua), galium (catchweed bedstraw, Galium aparine), bermudagrass (Cynodon dactylon), surinam grass (Brachiaria decumbens), cocklebur (common cocklebur, Xanthium strumarium), corn (Zea mays), large crabgrass (Digitaria sanguinalis), woolly cupgrass (Eriochloa villosa), foxtail, giant (giant foxtail, Setaria faberii), goosegrass (Eleusine indica), johnsongrass (Sorghum halepense), kochia (Kochia scoparia), lambsquarters (Chenopodium album), morningglory (Ipomoea coccinea), nightshade (eastern black nightshade, Solanum ptycanthum), nutsedge, yellow (yellow nutsedge, Cyperus esculentus), pigweed (Amaranthus retroflexus), ragweed (common ragweed, Ambrosia elation), soybean (Glycine max), common (oilseed) sunflower (Helianthus annuus), Russian thistle (Salsola kali) and velvetleaf (Abutilon theophrasti) were planted into a blend of loam soil and sand and treated preemergence with test chemicals formulated in a non-phytotoxic solvent mixture which included a surfactant.
At the same time, plants selected from these crop and weed species and also barley (winter barley, Hordeum vulgare), canarygrass (Phalaris minor), chickweed (common chickweed, Stellaria media) windgrass (Apera spica-venti) and deadnettle (henbit deadnettle, Lamium amplexicaule) were planted in pots containing Redi-Earth® planting medium (Scotts Company, 14111 Scottslawn Road, Marysville, Ohio 43041) comprising spaghnum peat moss, vermiculite, wetting agent and starter nutrients and treated with postemergence applications of test chemicals formulated in the same manner. Plants ranged in height from 2 to 18 cm (1- to 4-leaf stage) for postemergence treatments.
(§2) Treated plants and controls were maintained in a greenhouse for 13 to 15 days, after which time all species were compared to controls and visually evaluated. Plant response ratings, summarized in Table C, are based on a scale of 0 to 100 where 0 is no effect and 100 is complete control. A dash (-) response means no test result.

[4] = tested on: surinam grass (Brachiaria decumbens); assay: Test C pre-/postemergence: surinam grass
Outline: as §1

[5] = tested on: Russian thistle (Salsola iberica); assay: Test D pre-/postemergence: Russian thistle; details: Postemergence
Outline: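 Applied as a non-phytotoxic solvent formulation with surfactant, compounds were tested preemergence in silt loam and postemergence on seedlings 2 to 18 cm high in peat-vermiculite medium. Evaluation was visual, 0 meaning no effect and 100 complete control, at 14 to 21 days.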

[6] = tested on: wheat, spring (spring wheat, Triticum aestivum); assay: Test D pre-/postemergence: wheat, spring
Description: (§3) Seeds of plant species selected from bluegrass (annual bluegrass, Poa annua), blackgrass (Alopecurus myosuroides), canarygrass (Phalaris minor), chickweed (common chickweed, Stellaria media), galium (catchweed bedstraw, Galium aparine), bromegrass, downy (downy bromegrass, Bromus tectorum), field poppy (Papaver rhoeas), field violet (Viola arvensis), foxtail, green (green foxtail, Setaria viridis), deadnettle (henbit deadnettle, Lamium amplexicaule), ryegrass, Italian (Italian ryegrass, Lolium multiflorum), kochia (Kochia scoparia), lambsquarters (Chenopodium album), oilseed rape (Brassica napus), pigweed (Amaranthus retroflexus), Russian thistle (Salsola iberica), chamomile (scentless chamomile, Matricaria inodora), speedwell (bird's-eye speedwell, Veronica persica), barley, spring (spring barley, Hordeum vulgare), wheat, spring (spring wheat, Triticum aestivum), buckwheat, wild (wild buckwheat, Polygonum convolvulus), mustard, wild (wild mustard, Sinapis arvensis), oat, wild (wild oat, Avena fatua), radish, wild (wild radish, Raphanus raphanistrum), windgrass (Apera spica-venti), barley, winter (winter barley, Hordeum vulgare), and wheat, winter (winter wheat, Triticum aestivum) were planted into a silt loam soil and treated preemergence with test chemicals formulated in a non-phytotoxic solvent mixture which included a surfactant. At the same time, these same crop and weed species were planted in pots containing the planting medium comprising spaghnum peat moss, vermiculite, wetting agent and starter nutrients and treated with postemergence applications of the test chemicals formulated in the same manner. Plants ranged in height from 2 to 18 cm (1- to 4-leaf stage).
as §2, with “controlled growth environment” for “greenhouse”, “14” for “13”, “21 days” for “15 days,”, “D,” for “C,”

[7] = tested on: speedwell (bird's-eye speedwell, Veronica persica); assay: Test D pre-/postemergence: speedwell; details: Preemergence
Description: as §3
as §2, with “controlled growth environment” for “greenhouse”, “14” for “13”, “21 days” for “15 days,”, “D,” for “C,”

[8] = tested on: barley, winter (winter barley, Hordeum vulgare); assay: Test D pre-/postemergence: barley, winter
Description: as §3
as §2, with “controlled growth environment” for “greenhouse”, “14” for “13”, “21 days” for “15 days,”, “D,” for “C,”

[9] = Postemergence, 31 g ai/ha, scale 0 to 100 (0 no effect, 100 complete control)
[10] = Postemergence, 62 g ai/ha, scale 0 to 100 (0 no effect, 100 complete control)
[11] = Postemergence, 125 g ai/ha, scale 0 to 100, 0 no effect, 100 complete control
[12] = Postemergence, 250 g ai/ha, scale 0 to 100
[13] = Preemergence, 31 g ai/ha, scale of 0 to 100, 0 is no effect, 100 is complete control
[14] = Preemergence, 62 g ai/ha, scale of 0 to 100, 0 is no effect, 100 is complete control
[15] = Preemergence, 125 g ai/ha, scale 0 to 100, 0 no effect, 100 complete control
[16] = Preemergence, 250 g ai/ha, scale 0 to 100, 0 no effect, 100 complete control
[17] = 31 g ai/ha, scale 0 to 100 (0 no effect, 100 complete control)
[18] = 62 g ai/ha, scale 0 to 100 (0 no effect, 100 complete control)
[19] = 125 g ai/ha, scale 0 to 100, 0 no effect, 100 complete control
[20] = 62 g ai/ha, scale of 0 to 100, 0 is no effect, 100 is complete control
[21] = 250 g ai/ha, scale 0 to 100, 0 no effect, 100 complete control
[22] = Postemergence, 16 g ai/ha, scale 0 to 100
[23] = Preemergence, 16 g ai/ha, scale 0 to 100 (0 no effect, 100 complete control)
[24] = Preemergence, 31 g ai/ha, scale 0 to 100 (0 no effect, 100 complete control)
[25] = Preemergence, 62 g ai/ha, scale 0 to 100
[26] = Preemergence, 125 g ai/ha, scale 0 to 100

SMILES: Fc1ccc(-n2nc(Cc3ccnc(C(F)(F)F)c3)c(OCC(F)(F)F)n2)cc1 [Compound 142]
- Plant response rating, Goosegrass [1, 9]: 35
- Plant response rating, Goosegrass [1, 10]: 35
- Plant response rating, Goosegrass [1, 11]: 70
- Plant response rating, Goosegrass [1, 12]: 90
- Plant response rating, Goosegrass [1, 13]: 100
- Plant response rating, Goosegrass [1, 14]: 100
- Plant response rating, Goosegrass [1, 15]: 100
- Plant response rating, Goosegrass [1, 16]: 100
- Plant response rating, Windgrass [2, 17]: 80
- Plant response rating, Windgrass [2, 18]: 80
- Plant response rating, Windgrass [2, 19]: 85
- Plant response rating, Windgrass ([2]; 250 g ai/ha, scale 0 to 100): 95
- Plant response rating, Russian Thistle [3, 20]: 80
- Plant response rating, Russian Thistle [3, 19]: 90
- Plant response rating, Russian Thistle [3, 21]: 90
- Plant response rating, Surinam Grass [4, 9]: 40
- Plant response rating, Surinam Grass [4, 10]: 40
- Plant response rating, Surinam Grass [4, 11]: 45
- Plant response rating, Surinam Grass [4, 12]: 50
- Plant response rating, Surinam Grass [4, 13]: 60
- Plant response rating, Surinam Grass [4, 14]: 75
- Plant response rating, Surinam Grass [4, 15]: 98
- Plant response rating, Surinam Grass [4, 16]: 98

SMILES: Cc1nn(-c2ccc(F)c(C(F)(F)F)c2)nc1Oc1ccnc(C(F)(F)F)c1 [Compound 147]
- Plant response rating, Goosegrass [1, 13]: 98
- Plant response rating, Goosegrass [1, 14]: 100
- Plant response rating, Goosegrass [1, 15]: 100
- Plant response rating, Goosegrass [1, 16]: 100
- Plant response rating: Russian Thistle [5, 17]: 85
- Plant response rating: Russian Thistle [5, 18]: 80
- Plant response rating: Russian Thistle [5, 19]: 80
- Plant response rating, Russian Thistle ([5]; 16 g ai/ha, scale 0 to 100): 45
- Plant response rating: Wheat, Spring [6, 9]: 15
- Plant response rating: Wheat, Spring [6, 10]: 20
- Plant response rating: Wheat, Spring [6, 11]: 25
- Plant response rating, Wheat, Spring [6, 22]: 10
- Plant response rating, Wheat, Spring [6, 23]: 0
- Plant response rating, Wheat, Spring [6, 24]: 0
- Plant response rating, Wheat, Spring [6, 25]: 0
- Plant response rating, Wheat, Spring [6, 26]: 5
- Plant response rating, Speedwell ([7]; 16 g ai/ha, scale 0 to 100 (0 no effect, 100 complete control)): 10
- Plant response rating, Speedwell [7, 17]: 20
- Plant response rating, Speedwell ([7]; 62 g ai/ha, scale 0 to 100): 100
- Plant response rating, Speedwell ([7]; 125 g ai/ha, scale 0 to 100): 100
- Plant response rating, Russian Thistle ([3]; 31 g ai/ha, scale of 0 to 100, 0 is no effect, 100 is complete control): 0
- Plant response rating, Russian Thistle [3, 20]: 90
- Plant response rating, Russian Thistle [3, 19]: 90
- Plant response rating, Russian Thistle [3, 21]: 90
- Plant response rating, Surinam Grass [4, 13]: 55
- Plant response rating, Surinam Grass [4, 14]: 80
- Plant response rating, Surinam Grass [4, 15]: 95
- Plant response rating, Surinam Grass [4, 16]: 95
- Plant response rating: Barley, Winter [8, 9]: 20
- Plant response rating: Barley, Winter [8, 10]: 25
- Plant response rating: Barley, Winter [8, 11]: 30
- Plant response rating, Barley, Winter [8, 22]: 15
- Plant response rating, Barley, Winter [8, 23]: 0
- Plant response rating, Barley, Winter [8, 24]: 0
- Plant response rating, Barley, Winter [8, 25]: 5
- Plant response rating, Barley, Winter [8, 26]: 15

From patent US9302999B2, “Substituted triazoles as herbicides” (E. I. DU PONT DE NEMOURS AND COMPANY, priority 2012, dated 2016)
